Measured values from patent US11840686B2, “Modulation of prekallikrein (PKK) expression” (Ionis Pharmaceuticals, Inc., priority 2013, dated 2023).
Strand notation (5' to 3'): a small letter for the sugar, then the base; units joined by * are phosphorothioate-linked, units joined directly phosphodiester-linked; [ ] holds rarer units or linkages, { } end groups; capitals alone tell only the bases. e = 2'-O-(2-methoxyethyl) (MOE); [5mC] = 5-methylcytosine; d = 2'-deoxy (DNA)

Key:
[1] = tested on: human PKK mRNA; assay: Human PKK mRNA in liver of human KLKB1 transgenic mice (Example 7); type: in vivo; conditions: twice a week for 3 weeks
Protocol: (§1) Transgenic mice containing a 37,390 base pair fragment of the human KLKB1 gene sequence (chromosome 4: position 187148672-187179625, accession no: NC_000004.11) were treated with ISIS antisense oligonucleotides selected from studies described above, which were evaluated for efficacy in this model.
(§2) Groups of transgenic mice were injected subcutaneously twice a week for 3 weeks with 2.5 mg/kg/week, 5.0 mg/kg/week, 10 mg/kg/week or 20 mg/kg/week of ISIS 546232, ISIS 546251, ISIS 546254, ISIS 546343, ISIS 546828, ISIS 547455, ISIS 547457, ISIS 547927, and ISIS 548048. One group of transgenic mice was injected subcutaneously twice a week for 3 weeks with PBS. Mice were euthanized 48 hours after the last dose, and organs and plasma were harvested for further analysis.
To evaluate the effect of ISIS oligonucleotides on target reduction, RNA was extracted from liver tissue for real-time PCR analysis of human PKK. Results are presented as percent inhibition of PKK mRNA, relative to PBS control.

[2] = tested on: PKK mRNA; assay: PKK mRNA in cynomolgus monkey liver (Example 8); type: in vivo; conditions: 40 mg/kg s.c., loading then weekly to week 13; day 87 or 88, 48 h after final dose
Protocol: Cynomolgus monkeys were treated with ISIS antisense oligonucleotides selected from studies described above. Antisense oligonucleotide efficacy and tolerability were evaluated. The human antisense oligonucleotides tested are cross-reactive with the rhesus genomic sequence (GENBANK Accession No. NW_001118167.1 truncated from nucleotides 2358000 to 2391000 and designated herein as SEQ ID NO: 18).
On day 87 or 88, 48 hours after the final dose, RNA was extracted from liver tissue for real-time PCR analysis of PKK using primer probe set RTS3455 (forward sequence […], designated herein as SEQ ID NO: 23; reverse sequence […], designated herein as SEQ ID NO: 24; probe sequence […], designated herein as SEQ ID NO: 25). The results were normalized to the housekeeping gene, Cyclophilin. Results are presented as percent inhibition of PKK mRNA, relative to PBS control.

[3] = tested on: human PKK mRNA; assay: Dose-dependent antisense inhibition of human PKK in HepaRG cells, 0.19-5.00 uM (Example 5); type: cell-based; conditions: for percent inhibition of PKK mRNA, 0.19 μM: 0.19 μM antisense oligonucleotide; for percent inhibition of PKK mRNA, 0.56 μM: 0.56 μM antisense oligonucleotide; for percent inhibition of PKK mRNA, 1.67 μM: 1.67 μM antisense oligonucleotide; for percent inhibition of PKK mRNA, 5.00 μM: 5.00 μM antisense oligonucleotide
How it was run: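 HepaRG cells (20,000/well) were electroporated with antisense oligonucleotide at 0.19, 0.56, 1.67 and 5.00 μM and treated for about 16 hours. PKK mRNA was quantified by qRT-PCR with primer probe set RTS3454, normalised to RIBOGREEN total RNA, and IC50 was derived per oligonucleotide.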

[4] = tested on: human PKK mRNA; assay: Antisense inhibition of human PKK mRNA in HepaRG cells, 5,000 nM (Example 2); type: cell-based; conditions: electroporation with 5,000 nM antisense oligonucleotide, approx. 24 hours, PKK mRNA by RT-PCR (RTS3454), relative to untreated control cells
How it was run: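 Percent inhibition of PKK mRNA is reported relative to untreated cells, after adjustment for total RNA by RIBOGREEN. Gapmers of 16–20 nucleosides with 2′-MOE wings were delivered at 5,000 nM by electroporation into HepaRG cells and left for roughly 24 hours before RNA isolation.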

[5] = tested on: PKK protein; assay: Plasma PKK protein levels in human KLKB1 transgenic mice (Example 7); type: in vivo; conditions: plasma, twice a week for 3 weeks
Protocol: as §1, §2
Plasma PKK protein levels were evaluated in all groups. Results are presented as percent inhibition of PKK protein, relative to PBS control.

[6] = HepaRG cells, electroporation, approximately 16 hours, Table 41
[7] = 4 point dose response, HepaRG cells, Table 41
[8] = Table 34, HepaRG, electroporation, ~16 h
[9] = Table 34, PKK mRNA, HepaRG, electroporation, ~16 h
[10] = Table 9 experiment, HepaRG cells, 20,000 cells per well
[11] = Table 10 experiment, HepaRG cells, 20,000 cells per well
[12] = HepaRG cells, electroporation, approximately 16 hours, Table 39
[13] = HepaRG cells, electroporation, approximately 16 hours, Table 36

Row | Substance | % inhibition of PKK mRNA in the transgenic mice liver relative to the PBS control ([1]; 2.5 mg/kg/week sc) [%] | % inhibition of PKK mRNA in the transgenic mice liver relative to the PBS control ([1]; 10 mg/kg/week sc) [%] | % inhibition of PKK mRNA in the transgenic mice liver relative to the PBS control ([1]; 20 mg/kg/week sc) [%] | % inhibition of PKK mRNA in the cynomolgus monkey liver relative to the PBS control [2] [%] | percent inhibition of PKK at 5.00 μM [3, 6] [%] | percent inhibition of PKK at 0.19 0μM [3, 6] [%] | percent inhibition of PKK at 0.56 0μM [3, 6] [%] | percent inhibition of PKK at 1.67 1μM [3, 6] [%] | IC50 [3, 7] [nM] | percent inhibition of PKK at 0.19 μM [3, 8] [%] | percent inhibition of PKK at 0.56 μM [3, 8] [%] | percent inhibition of PKK at 1.67 μM [3, 8] [%] | percent inhibition of PKK at 5.00 μM [3, 8] [%] | IC50 [3, 9] [nM] | % inhibition [4, 10] [%] | % inhibition of PKK protein levels in the transgenic mice relative to the PBS control ([5]; 2.5 mg/kg/week sc) [%] | % inhibition of PKK protein levels in the transgenic mice relative to the PBS control ([5]; 10 mg/kg/week sc) [%] | % inhibition of PKK protein levels in the transgenic mice relative to the PBS control ([5]; 20 mg/kg/week sc) [%] | % inhibition of PKK mRNA in the transgenic mice liver relative to the PBS control ([1]; 5 mg/kg/week sc) [%] | % inhibition of PKK protein levels in the transgenic mice relative to the PBS control ([5]; 5 mg/kg/week sc) [%] | further results
1 | 546343 (antisense e[5mC]*e[5mC]*e[5mC]*e[5mC]*e[5mC]*dT*dT*d[5mC]*dT*dT*dT*dA*dT*dA*dG*e[5mC]*e[5mC]*eA*eG*e[5mC]) [compound 546343] | 46 | 66 | 86 | 74 | 95 | 37 | 32 | 83 | 400 | 28 | 64 | 87 | 87 | 400 | 97 | 0 | 38 | 79 |  |  | % inhibition [4, 11]: 91%
2 | 547457 (antisense eA*eA*eG*eG*e[5mC]*dG*dA*dT*dA*dT*d[5mC]*dA*dT*dG*dA*eT*eT*e[5mC]*e[5mC]*e[5mC]) [compound 547457] | 0 | 45 | 62 | 89 |  |  |  |  |  |  |  |  |  |  | 89 | 0 | 31 | 60 | 69 | 4 | percent inhibition of PKK at 0.19 μM [3, 12]: 41%; percent inhibition of PKK at 0.56 μM [3, 12]: 65%; percent inhibition of PKK at 1.67 μM [3, 12]: 80%; percent inhibition of PKK at 5.00 μM [3, 12]: 85%; IC50 ([3]; 4 point dose response, HepaRG cells, Table 39): 300 nM; percent inhibition of PKK mRNA, 0.19 μM ([3]; HepaRG cells): 33%; percent inhibition of PKK mRNA, 0.56 μM ([3]; HepaRG cells): 42%; percent inhibition of PKK mRNA, 1.67 μM ([3]; HepaRG cells): 70%; percent inhibition of PKK mRNA, 5.00 μM ([3]; HepaRG cells): 83%; IC50 ([3]; HepaRG cells, 0.19-5.00 μM): 600 nM; % inhibition [4, 11]: 92%
3 | 546254 (eT*eG*e[5mC]*eA*eA*dG*dT*d[5mC]*dT*d[5mC]*dT*dT*dG*dG*d[5mC]*eA*eA*eA*e[5mC]*eA) [compound 546254] | 31 | 84 | 83 | 88 | 95 | 40 | 63 | 84 | 300 | 51 | 66 | 80 | 91 | 200 |  | 0 | 51 | 76 | 55 | 36 | % inhibition ([4]; Table 8, HepaRG cells): 95%
4 | 546251 (eG*eG*e[5mC]*eA*eA*dA*d[5mC]*dA*dT*dT*d[5mC]*dA*d[5mC]*dT*d[5mC]*e[5mC]*eT*eT*eT*eA) [compound 546251] | 13 | 66 | 79 | 90 |  |  |  |  |  |  |  |  |  |  |  | 22 | 52 | 69 | 51 | 30 | percent inhibition of PKK at 0.19 μM [3, 13]: 31%; percent inhibition of PKK at 0.56 μM [3, 13]: 60%; percent inhibition of PKK at 1.67 μM [3, 13]: 99%; percent inhibition of PKK at 5.00 μM [3, 13]: 89%; IC50 ([3]; 4 point dose response, HepaRG cells, Table 36): 500 nM; percent inhibition of PKK mRNA, 0.19 μM ([3]; HepaRG cells): 19%; percent inhibition of PKK mRNA, 0.56 μM ([3]; HepaRG cells): 45%; percent inhibition of PKK mRNA, 1.67 μM ([3]; HepaRG cells): 91%; percent inhibition of PKK mRNA, 5.00 μM ([3]; HepaRG cells): 97%; IC50 ([3]; HepaRG cells, 0.19-5.00 μM): 600 nM; % inhibition ([4]; Table 7, HepaRG cells): 92%
